Measurements as given in patent US8198311B2, “Modulators of glucocorticoid receptor, AP-1, and/or NF-κB activity and use thereof” (Bristol-Myers Squibb Company, priority 2006, dated 2012).

Legend:
[1] = molecular target: T1, human glucocorticoid receptor (Homo sapiens, UniProt P04150); test: Glucocorticoid Receptor Binding Assay (I), fluorescence polarization competitor kit (Fluormone GS Red); conditions: purified human recombinant full-length GR
T1 construct: purified human recombinant full-length glucocorticoid receptor (2 nM); purchased Invitrogen Part # 2893
T1 sequence (P04150 1-777): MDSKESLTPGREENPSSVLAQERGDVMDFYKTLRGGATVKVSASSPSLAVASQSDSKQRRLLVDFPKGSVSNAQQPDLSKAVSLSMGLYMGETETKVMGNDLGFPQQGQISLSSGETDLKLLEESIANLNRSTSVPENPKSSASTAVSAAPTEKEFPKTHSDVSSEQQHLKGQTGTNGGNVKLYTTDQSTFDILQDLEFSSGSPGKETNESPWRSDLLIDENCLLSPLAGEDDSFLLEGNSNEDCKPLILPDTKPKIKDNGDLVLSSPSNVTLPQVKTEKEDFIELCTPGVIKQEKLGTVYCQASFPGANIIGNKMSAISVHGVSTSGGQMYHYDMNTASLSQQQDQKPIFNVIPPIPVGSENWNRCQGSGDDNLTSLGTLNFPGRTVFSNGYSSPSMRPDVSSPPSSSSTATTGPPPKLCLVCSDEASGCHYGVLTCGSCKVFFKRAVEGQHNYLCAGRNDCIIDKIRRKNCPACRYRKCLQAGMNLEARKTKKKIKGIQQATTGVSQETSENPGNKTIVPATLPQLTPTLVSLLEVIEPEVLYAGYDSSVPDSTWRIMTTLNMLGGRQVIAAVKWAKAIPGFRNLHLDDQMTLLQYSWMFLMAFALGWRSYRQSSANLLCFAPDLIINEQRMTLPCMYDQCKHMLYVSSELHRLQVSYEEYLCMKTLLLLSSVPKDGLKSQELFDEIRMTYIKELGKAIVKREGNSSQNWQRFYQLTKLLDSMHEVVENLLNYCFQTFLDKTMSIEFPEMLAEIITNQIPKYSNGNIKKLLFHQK
Procedure: In order to assess the affinity of test compounds for the human glucocorticoid receptor, a commercially available kit was used (Glucocorticoid Receptor Competitor Assay Kit, Invitrogen Part # 2893). Briefly, purified human recombinant full-length glucocorticoid receptor (2 nM) was mixed with fluorescently labeled glucocorticoid (1 nM Fluormone GS Red) in the presence or absence of test compound. After two hour incubation at room temperature in the dark, the fluorescence polarization (FP) of the samples was measured. […] Test compounds were analyzed in the concentration range from 8.5E-05 μM to 5 μM.

[2] = tested on: AP-1 induced transcriptional activity; test: Cellular Transrepressional Assay (AP-1 luciferase reporter in A549 cells, PMA-activated); type: cell-based; conditions: Homo sapiens, A549, 7 h, pAP-1-Luc, 10 ng/ml PMA, read-out: AP-1 (EC50, nM) (Cellular Transrepression Assay)
Procedure: To measure the ability of test molecules to inhibit AP-1 induced transcriptional activity an A549 cell was utilized which was stably transfected with a plasmid containing 7×AP-1 DNA binding sites (pAP-1-Luc plasmid, Stratagene Co. La Jolla, Calif.) followed by the gene for luciferase. Cells were activated with 10 ng/ml of phorbol myristic acid (PMA) plus or minus test molecules for 7 hours. After 7 hours a luciferase reagent was added to measure luciferase enzymatic activity in the cell. After a 10 minute incubation of luciferase reagent with cells, luminescence was measured in a TopCount luminescence counter. Repression of AP-1 activity was calculated as the percentage decrease in the signal induced by PMA alone. Test molecules were analyzed in the concentration range from 0.1 nM to 40 μM. EC50s were determined by using standard curve fitting methods such as Excel fit (Microsoft Co.).

Row | SMILES | Ki [1] | EC50 [2]
1 | CC(C)CC(c1ccc2[nH]ncc2c1)C(C)(C)CNC(=O)NC(C)(C)C (centres unmarked) [Example 70, 1-(3-(1H-indazol-5-yl)-2,2,5-trimethylhexyl)-3-tert-butylurea] | 44 nM | > 10000 nM
2 | CC(C)CC(c1ccc2c(cnn2-c2ccc(F)cc2)c1)C(C)(C)CNC(=O)N[C@@H]1CCc2ccccc21 (stereo partly drawn) [Example 71B, 1-((R)-2,3-dihydro-1H-inden-1-yl)-3-(3-(1-(4-fluorophenyl)-1H-indazol-5-yl)-2,2,5-trimethylhexyl)urea] | 6.5 nM | 511 nM
3 | CC(C)CC(c1ccc2c(cnn2-c2ccc(F)cc2)c1)C(C)(C)CNC(=O)N[C@H](C)c1cccc2ccccc12 (stereo partly drawn) [Example 75, 1-(3-(1-(4-fluorophenyl)-1H-indazol-5-yl)-2,2,5-trimethylhexyl)-3-((R)-1-(naphthalene-1-yl)ethyl)urea] | 8.9 nM | 628 nM
4 | CC(C)CC(c1ccc2c(cnn2-c2ccc(F)cc2)c1)C(C)(C)CNC(=O)N[C@@H](C)C(C)(C)C (stereo partly drawn) [Example 77, 1-((S)-3,3-dimethylbutan-2-yl)-3-(3-(1-(4-fluorophenyl)-1H-indazol-5-yl)-2,2,5-trimethylhexyl)urea] | 7.4 nM | 143 nM
5 | CC(C)CC(c1ccc2c(cnn2-c2ccc(F)cc2)c1)C(C)(C)CNC(=O)N[C@@H]1c2ccccc2C[C@@H]1O (stereo partly drawn) [Example 78, 1-(3-(1-(4-fluorophenyl)-1H-indazol-5-yl)-2,2,5-trimethylhexyl)-3-((1R,2S)-2-hydroxy-2,3-dihydro-1H-inden-1-yl)urea] | 2.2 nM | 813 nM
6 | CC(C)CC(c1ccc2c(cnn2-c2ccc(F)cc2)c1)C(C)(C)CNC(=O)NC1CCN(Cc2ccccc2)CC1 (centres unmarked) [Example 79, 1-(1-benzylpiperidin-4-yl)-3-(3-(1-(4-fluorophenyl)-1H-indazol-5-yl)-2,2,5-trimethylhexyl)urea] | 11 nM | 5000 nM
7 | CC(CNS(C)(=O)=O)C(c1ccccc1)c1ccc2c(cnn2-c2ccc(F)cc2)c1 (centres unmarked) [Example 92, N-(3-(1-(4-fluorophenyl)-1H-indazol-5-yl)-2-methyl-3-phenylpropyl)methanesulfonamide] | 0.94 nM | 12 nM

More lines, in order of falling Ki [1], values ahead:

Row | Ki [1] | EC50 [2] | SMILES
8 | 26 nM | > 10000 nM | CC(C)CC(c1ccc2c(cnn2-c2ccc(F)cc2)c1)C(C)(C)CNC(=O)NC1CCC(C(C)(C)C)CC1 (centres unmarked) [Example 74, 1-(4-tert-butylcyclohexyl)-3-(3-(1-(4-fluorophenyl)-1H-indazol-5-yl)-2,2,5-trimethylhexyl)urea]
9 | 13 nM | 107 nM | CC(C)CC(c1ccc2c(cnn2-c2ccc(F)cc2)c1)C(C)(C)CNC(=O)NC(c1ccccc1)c1ccccc1 (centres unmarked) [Example 73, 1-benzhydryl-3-(3-(1-(4-fluorophenyl)-1H-indazol-5-yl)-2,2,5-trimethylhexyl)urea]
10 | 8.7 nM | > 10000 nM | CC(C)CC(c1ccc2c(cnn2-c2ccc(F)cc2)c1)C(C)(C)CNC(=O)N[C@@H](C)c1cccc2ccccc12 (stereo partly drawn) [Example 76, 1-(3-(1-(4-fluorophenyl)-1H-indazol-5-yl)-2,2,5-trimethylhexyl)-3-((S)-1-(naphthalene-1-yl)ethyl)urea]
11 | 8.7 nM | > 5000 nM | Cc1cc(C)c(S(=O)(=O)NCC(C)(C)C(CC(C)C)c2ccc3c(cnn3-c3ccc(F)cc3)c2)c(C)c1 (centres unmarked) [Example 81, N-(3-(1-(4-fluorophenyl)-1H-indazol-5-yl)-2,2,5-trimethylhexyl)-2,4,6-trimethylbenzenesulfonamide]
12 | 5.8 nM | 194 nM | CC(C)CC(c1ccc2c(cnn2-c2ccc(F)cc2)c1)C(C)(C)CNC(=O)N[C@H]1CCc2ccccc21 (stereo partly drawn) [Example 71A, 1-((S)-2,3-dihydro-1H-inden-1-yl)-3-(3-(1-(4-fluorophenyl)-1H-indazol-5-yl)-2,2,5-trimethylhexyl)urea]
13 | 3 nM | 234 nM | CC(C)CC(c1ccc2c(cnn2-c2ccc(F)cc2)c1)C(C)(C)CNC(=O)NC(CO)Cc1ccc(Cl)cc1 (centres unmarked) [Example 80, 1-(1-(4-chlorophenyl)-3-hydroxypropan-2-yl)-3-(3-(1-(4-fluorophenyl)-1H-indazol-5-yl)-2,2,5-trimethylhexyl)urea]
